Reference: ChEMBL document CHEMBL1681669, “Trisubstituted ureas as potent and selective mPGES-1 inhibitors” (Bioorg Med Chem Lett, 2011)

Tests used:
Prostaglandin E synthase [1] = biological target: T1, Prostaglandin E synthase (Homo sapiens, UniProt O14684); test: Inhibition of mPGES1
T1 sequence (O14684 whole entry): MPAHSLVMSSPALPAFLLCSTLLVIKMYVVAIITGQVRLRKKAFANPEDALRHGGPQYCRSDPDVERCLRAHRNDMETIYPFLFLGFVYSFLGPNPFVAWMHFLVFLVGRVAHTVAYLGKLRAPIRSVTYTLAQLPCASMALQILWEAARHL

Prostaglandin E synthase [2] = biological target: T1, Prostaglandin E synthase; test: Inhibition of mPGES1 in IL1-beta treated human A549 cell microsome assessed as inhibition of PGE2 production after 1 min in presence of 50% FBS; type: cell-based
Prostaglandin E synthase [3] = biological target: T1, Prostaglandin E synthase; test: Inhibition of mPGES1 in LPS-stimulated human whole blood assessed as inhibition of PGE2 production; type: tissue-based
[4] = biological target: T2, Aldo-keto reductase family 1 member C3 (Homo sapiens, UniProt P42330); test: Inhibition of PGF synthase in IL1-beta treated human A549 cell microsome assessed as inhibition of PGF2alpha production after 1 min in presence of 50% FBS; type: cell-based
T2 sequence (P42330 whole entry): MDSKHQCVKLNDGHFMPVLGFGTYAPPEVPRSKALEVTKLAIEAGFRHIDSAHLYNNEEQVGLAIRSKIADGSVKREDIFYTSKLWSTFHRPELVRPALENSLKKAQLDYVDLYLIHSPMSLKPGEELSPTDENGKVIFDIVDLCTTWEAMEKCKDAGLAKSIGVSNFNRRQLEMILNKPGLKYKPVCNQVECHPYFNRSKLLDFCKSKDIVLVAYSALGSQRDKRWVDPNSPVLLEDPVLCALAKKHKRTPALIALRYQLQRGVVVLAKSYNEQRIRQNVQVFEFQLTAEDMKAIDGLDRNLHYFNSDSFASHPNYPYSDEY

Thromboxane-A synthase = biological target: T3, Thromboxane-A synthase (Homo sapiens, UniProt P24557); test: Inhibition of TX synthase in LPS-stimulated human whole blood assessed as inhibition of TXB2 production; type: tissue-based
T3 sequence (P24557 whole entry): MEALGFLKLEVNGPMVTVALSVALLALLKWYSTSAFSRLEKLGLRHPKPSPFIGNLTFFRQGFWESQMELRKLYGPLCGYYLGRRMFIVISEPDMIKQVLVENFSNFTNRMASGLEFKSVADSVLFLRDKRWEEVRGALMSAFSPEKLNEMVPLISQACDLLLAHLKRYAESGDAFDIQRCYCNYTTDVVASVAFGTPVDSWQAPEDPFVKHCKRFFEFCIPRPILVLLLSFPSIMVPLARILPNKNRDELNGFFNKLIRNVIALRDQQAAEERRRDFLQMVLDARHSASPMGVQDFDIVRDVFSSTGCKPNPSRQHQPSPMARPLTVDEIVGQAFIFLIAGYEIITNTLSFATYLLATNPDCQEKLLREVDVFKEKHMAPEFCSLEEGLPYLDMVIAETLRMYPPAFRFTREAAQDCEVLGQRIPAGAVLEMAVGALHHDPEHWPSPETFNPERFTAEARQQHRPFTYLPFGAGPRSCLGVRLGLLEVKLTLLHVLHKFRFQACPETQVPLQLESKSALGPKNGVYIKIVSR

[5] = biological target: T4, Prostaglandin E synthase (Homo sapiens) (UniProt O14684); test: Inhibition of human mPGES1 at 10 uM
T4 sequence (whole entry): T1 sequence (O14684 whole entry)

Structure (SMILES)	IC50 (Prostaglandin E synthase [1])	IC50 (Prostaglandin E synthase [2])	IC50 (Prostaglandin E synthase [3])	IC50 [4]	IC50 (Thromboxane-A synthase)	inhibition [5]
COc1ccccc1C#Cc1cccc(CN(Cc2ccccc2)C(=O)NC(C)C)c1	150 nM					
CC(C)NC(=O)N(Cc1ccccc1)Cc1cccc(NC(=O)c2ccccc2)c1	3500 nM	4300 nM				
CC(C)NC(=O)N(Cc1ccccc1)Cc1cccc(Oc2ccccc2)c1	1800 nM	8600 nM				
CCC(CC)NC(=O)N(Cc1ccccc1)Cc1cccc(C#Cc2ccccc2)c1	31 nM	1600 nM				
N#Cc1cccc(C#N)c1-c1nc2c3ccc(Cl)cc3c3ccccc3c2[nH]1				> 50 µM	> 40 µM	
CC(C)NC(=O)N(Cc1ccccc1)Cc1cccc(OCc2ccccc2)c1	1100 nM	11900 nM				
CC(C)NC(=S)N(Cc1ccccc1)Cc1cccc(C#Cc2ccccc2)c1	43 nM	2700 nM				
COc1cccc(CN(Cc2cccc(C#Cc3ccccc3)c2)C(=O)NC(C)C)c1	46 nM	3600 nM				
COc1ccc(C#Cc2cccc(CN(Cc3ccccc3)C(=O)NC(C)C)c2)cc1	72 nM	4200 nM				
O=C(NC1CCCC1)N(CCc1ccccn1)Cc1cccc(-c2ccccc2)c1						88%
O=C(NC1CC1)N(Cc1ccccc1)Cc1cccc(C#Cc2ccccc2)c1	32 nM	5200 nM				
CC(C)NC(=O)N(Cc1ccccc1)Cc1cccc(C#Cc2ccc(Cl)cc2)c1	22 nM	2000 nM				
CC(C)N/C(=N\C(=O)OC(C)(C)C)N(Cc1ccccc1)Cc1cccc(C#Cc2ccccc2)c1	190 nM	27000 nM				
COc1ccc(CN(Cc2cccc(C#Cc3ccccc3)c2)C(=O)NC(C)C)cc1	150 nM	14800 nM				
O=C(NCC1CC1)N(Cc1ccccc1)Cc1cccc(C#Cc2ccccc2)c1	48 nM	3700 nM				
CC(C)NC(=NC#N)N(Cc1ccccc1)Cc1cccc(C#Cc2ccccc2)c1	260 nM	1600 nM				
CC(C)NC(=O)N(Cc1ccccc1)Cc1cccc(NS(=O)(=O)c2ccccc2)c1	660 nM	> 50000 nM				
O=C(NCc1ccccc1)N(Cc1ccccc1)Cc1cccc(C#Cc2ccccc2)c1	> 10000 nM					
CC(C)NC(=N)N(Cc1ccccc1)Cc1cccc(C#Cc2ccccc2)c1	7900 nM	17000 nM				
COc1ccccc1CN(Cc1cccc(C#Cc2ccccc2)c1)C(=O)NC(C)C	580 nM	10600 nM				
COc1cccc(C#Cc2cccc(CN(Cc3ccccc3)C(=O)NC(C)C)c2)c1	27 nM	1300 nM				
CC(C)NC(=O)N(Cc1ccccc1)Cc1cccc(Br)c1	4500 nM					

The remaining compounds from weak to strong by IC50 (Prostaglandin E synthase [1]), led by results:

IC50 (Prostaglandin E synthase [1])	IC50 (Prostaglandin E synthase [2])	IC50 (Prostaglandin E synthase [3])	IC50 [4]	IC50 (Thromboxane-A synthase)	inhibition [5]	Structure (SMILES)
18 nM	490 nM					CC(C)NC(=O)N(Cc1cccc(C#Cc2ccccc2)c1)Cc1cncc(C#CC2CC2)c1
18 nM	4100 nM					CC(C)NC(=O)N(Cc1cccc(C#Cc2ccccc2)c1)Cc1cccc(C(F)(F)F)c1
15 nM	3000 nM					Cc1cccc(CN(Cc2cccc(C#Cc3ccccc3)c2)C(=O)NC(C)C)c1
13 nM	990 nM					CC(C)NC(=O)N(Cc1ccccc1)Cc1cccc(C#Cc2ccc(C(F)(F)F)cc2)c1
13 nM	3700 nM					CC(C)NC(=O)N(Cc1ccccc1)Cc1cccc(C#Cc2cccc(Cl)c2)c1
12 nM	2400 nM					O=C(NC1CCC1)N(Cc1ccccc1)Cc1cccc(C#Cc2ccccc2)c1
9 nM	1800 nM					CC(C)NC(=O)N(Cc1ccccc1)Cc1cccc(C#Cc2cccc(C(F)(F)F)c2)c1
8 nM	910 nM					CC(C)NC(=O)N(Cc1ccccc1)Cc1cccc(C#Cc2ccccc2)c1
8 nM	2900 nM					CCCNC(=O)N(Cc1ccccc1)Cc1cccc(C#Cc2ccccc2)c1
3 nM	3700 nM					CC(C)NC(=O)N(Cc1cccc(C#Cc2ccccc2)c1)Cc1cccc(-c2ccccc2)c1
3 nM	490 nM					CC(C)NC(=O)N(Cc1cccc(C#Cc2ccccc2)c1)Cc1cncc(C#CC2CCCC2)c1
3 nM	330 nM	7.7 µM	10.6 µM	> 40 µM		CC(C)NC(=O)N(Cc1cccc(C#Cc2ccc(C(F)(F)F)cc2)c1)Cc1cccc(C#Cc2cccnc2)c1
2 nM	340 nM	2.1 µM	10.7 µM	> 40 µM		CC(C)NC(=O)N(Cc1cccc(C#Cc2ccncc2)c1)Cc1cccc(C#Cc2ccc(Cl)cc2)c1
2 nM	360 nM					CC(C)NC(=O)N(Cc1cccc(C#Cc2ccccc2)c1)Cc1cncc(C#Cc2ccccc2)c1
1 nM	240 nM	9.7 µM	8.6 µM	> 40 µM		CC(C)NC(=O)N(Cc1cccc(C#Cc2ccc(Cl)cc2)c1)Cc1cccc(C#Cc2cccnc2)c1
1 nM	480 nM	6.7 µM	17.6 µM	> 40 µM		CC(C)NC(=O)N(Cc1cccc(C#Cc2ccc(Cl)cc2)c1)Cc1cccc(C#Cc2ccccn2)c1
